For assay [1], the target named is T1, Xanthine dehydrogenase/oxidase (Bos taurus, UniProt P80457). Kind of assay: Inhibition of bovine milk xanthine oxidase using xanthine as substrate assessed as decrease in uric acid formation at 50 uM preincubated for 5 mins. The conditions noted are these: cattle.
Assay [2] has as its target T1, Xanthine dehydrogenase/oxidase. Nature of the assay: Inhibition of bovine milk xanthine oxidase using xanthine as substrate assessed as decrease in uric acid formation preincubated for 5 mins.

T1 sequence (P80457 whole entry): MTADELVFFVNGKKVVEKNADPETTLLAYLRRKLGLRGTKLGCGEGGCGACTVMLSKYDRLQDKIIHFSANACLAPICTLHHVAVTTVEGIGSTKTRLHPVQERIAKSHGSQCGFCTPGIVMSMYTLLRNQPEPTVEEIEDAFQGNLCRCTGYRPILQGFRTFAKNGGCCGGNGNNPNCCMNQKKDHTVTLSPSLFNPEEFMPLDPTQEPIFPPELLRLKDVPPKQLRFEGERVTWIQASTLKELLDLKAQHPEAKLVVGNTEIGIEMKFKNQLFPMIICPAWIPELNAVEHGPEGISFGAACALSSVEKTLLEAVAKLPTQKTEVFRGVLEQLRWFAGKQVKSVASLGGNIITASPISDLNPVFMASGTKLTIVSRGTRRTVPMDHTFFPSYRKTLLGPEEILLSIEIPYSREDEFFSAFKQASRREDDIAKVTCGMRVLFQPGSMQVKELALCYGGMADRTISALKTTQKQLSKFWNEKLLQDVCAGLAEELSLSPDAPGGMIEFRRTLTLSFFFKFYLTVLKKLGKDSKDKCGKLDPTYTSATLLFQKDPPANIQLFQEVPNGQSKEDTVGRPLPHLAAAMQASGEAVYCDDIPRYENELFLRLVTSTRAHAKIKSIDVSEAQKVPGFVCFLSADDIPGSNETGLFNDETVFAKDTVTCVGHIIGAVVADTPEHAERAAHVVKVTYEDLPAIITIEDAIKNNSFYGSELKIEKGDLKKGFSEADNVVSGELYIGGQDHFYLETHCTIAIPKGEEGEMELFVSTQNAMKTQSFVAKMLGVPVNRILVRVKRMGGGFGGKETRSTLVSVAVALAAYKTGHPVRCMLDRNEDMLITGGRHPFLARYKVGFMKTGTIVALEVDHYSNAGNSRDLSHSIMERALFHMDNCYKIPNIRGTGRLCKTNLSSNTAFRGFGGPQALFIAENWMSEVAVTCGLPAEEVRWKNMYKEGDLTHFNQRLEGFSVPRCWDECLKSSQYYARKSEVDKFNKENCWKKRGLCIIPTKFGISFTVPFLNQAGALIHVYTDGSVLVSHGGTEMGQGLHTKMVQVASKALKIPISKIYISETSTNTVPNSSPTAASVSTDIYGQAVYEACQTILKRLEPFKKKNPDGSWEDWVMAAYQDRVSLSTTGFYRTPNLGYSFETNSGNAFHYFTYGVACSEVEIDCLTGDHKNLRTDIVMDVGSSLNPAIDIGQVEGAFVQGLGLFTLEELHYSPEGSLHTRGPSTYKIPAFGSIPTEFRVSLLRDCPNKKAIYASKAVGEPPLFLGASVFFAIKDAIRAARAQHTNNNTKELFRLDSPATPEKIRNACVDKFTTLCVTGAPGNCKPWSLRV

The term inhibition denotes the drop in the measured response relative to a control, in per cent. Turning to `COC(=O)C1=C(C)Oc2ccc3ccccc3c2C1c1ccc(O)c(OC)c1` (stereo unspecified), the inhibition at 50 µM in assay [1] was found to be 67.5%. Take `CCOC(=O)C1=C(C)Oc2ccc3ccccc3c2C1/C=C/c1ccccc1` (stereo unspecified): the inhibition at 50 µM in assay [1] was determined as 11.3%. By IC50 is commonly meant the concentration that gives 50% inhibition. For `COC(=O)C1=C(C)Oc2ccc3ccccc3c2C1c1ccc(OC)cc1` (stereo unspecified), in assay [1], the inhibition at 50 µM stood at 68.7%. The half-inhibitory concentration (IC50) in assay [2] came to 36.5 µM. With `COC(=O)C1=C(C)Oc2ccc3ccccc3c2C1c1ccc(Cl)cc1` (stereo unspecified), the inhibition at 50 µM in assay [1] was determined as 23.9%. As to `COC(=O)C1=C(C)Oc2ccc3ccccc3c2C1c1ccc([N+](=O)[O-])cc1` (stereo unspecified), the inhibition at 50 µM in assay [1] was found to be 25%.

Turning to `COC(=O)C1=C(C)Oc2ccc3ccccc3c2C1c1cccc(Oc2ccccc2)c1` (stereo unspecified), the inhibition at 50 µM in assay [1] came out at 59.6%. For the compound `CCCCCC1C(C(=O)OC)=C(C)Oc2ccc3ccccc3c21` (stereo unspecified), in assay [1], the inhibition at 50 µM is 58.9%. As for `COC(=O)C1=C(C)Oc2ccc3ccccc3c2C1c1ccc(O)cc1` (stereo unspecified), in assay [1], the inhibition at 50 µM was 72.4%. Further, the half-inhibitory concentration (IC50) in assay [2] amounted to 24 µM. Regarding `COC(=O)C1=C(C)Oc2ccc3ccccc3c2C1c1ccc(OC)c(O)c1` (stereo unspecified), the inhibition at 50 µM in assay [1] was found to be 69.3%. Turning to `COC(=O)C1=C(C)Oc2ccc3ccccc3c2C1c1ccccc1OC` (stereo unspecified), the inhibition at 50 µM in assay [1] was determined as 58.8%. For the compound `COC(=O)C1=C(C)Oc2ccc3ccccc3c2C1c1ccc(OC)c(OC)c1` (stereo unspecified), the inhibition at 50 µM in assay [1] amounted to 78.2%. Moreover, the IC50 in assay [2] was found to be 17 µM. In the case of `COC(=O)C1=C(C)Oc2ccc3ccccc3c2C1c1cc(OC)c(OC)c(OC)c1` (stereo unspecified), the inhibition at 50 µM in assay [1] was determined as 50%. Turning to `COC(=O)C1=C(C)Oc2ccc3ccccc3c2C1c1cccs1` (stereo unspecified), the inhibition at 50 µM in assay [1] stood at 96.6%. The half-maximal inhibitory concentration (IC50) in assay [2] was found to be 4 µM.

`COC(=O)C1=C(C)Oc2ccc3ccccc3c2C1c1ccco1` (stereo unspecified): the inhibition at 50 µM in assay [1] came out at 92.5%. Moreover, the half-maximal inhibitory concentration (IC50) in assay [2] was determined as 10 µM. In the case of `CCOC(=O)C1=C(C)Oc2ccc3ccccc3c2C1c1ccc(OC)c(O)c1` (stereo unspecified), the inhibition at 50 µM in assay [1] is 64.7%. On to `CCOC(=O)C1=C(C)Oc2ccc3ccccc3c2C1c1ccc(OC)c(OC)c1` (stereo unspecified), for which the inhibition at 50 µM in assay [1] amounted to 62.3%.

Take `CCOC(=O)C1=C(C)Oc2ccc3ccccc3c2C1c1cccs1` (stereo unspecified): the inhibition at 50 µM in assay [1] came to 89%. For the same compound, the IC50 in assay [2] is 11.4 µM. As for `CCOC(=O)C1=C(C)Oc2ccc3ccccc3c2C1c1ccco1` (stereo unspecified), in assay [1], the inhibition at 50 µM stood at 88.6%. Moreover, the IC50 in assay [2] came to 13.2 µM. With `COC(=O)C1=C(C)Oc2ccc3ccccc3c2C1c1sccc1C` (stereo unspecified), the inhibition at 50 µM in assay [1] is 93.3%. Moreover, the IC50 in assay [2] was 7.31 µM.

In the case of `COC(=O)C1=C(C)Oc2ccc3ccccc3c2C1c1ccc[nH]1` (stereo unspecified), in assay [1], the inhibition at 50 µM is 94.5%. For the same compound, the IC50 in assay [2] is 6.23 µM. For the compound `COC(=O)C1=C(C)Oc2ccc3ccccc3c2C1`, the inhibition at 50 µM in assay [1] was found to be 32%. Take `CCOC(=O)C1=C(C)Oc2ccc3ccccc3c2C1c1ccccc1` (stereo unspecified): the inhibition at 50 µM in assay [1] came out at 65.2%. In addition, the IC50 in assay [2] was found to be 44.4 µM. For `CCOC(=O)C1=C(C)Oc2ccc3ccccc3c2C1c1ccc(OC)cc1` (stereo unspecified), the inhibition at 50 µM in assay [1] is 56.5%. Regarding `CCOC(=O)C1=C(C)Oc2ccc3ccccc3c2C1c1ccc(Cl)cc1` (stereo unspecified), in assay [1], the inhibition at 50 µM is 20.9%. Regarding `CCOC(=O)C1=C(C)Oc2ccc3ccccc3c2C1c1ccc([N+](=O)[O-])cc1` (stereo unspecified), the inhibition at 50 µM in assay [1] was 21.4%. In the case of `CCOC(=O)C1=C(C)Oc2ccc3ccccc3c2C1c1cccc(Oc2ccccc2)c1` (stereo unspecified), in assay [1], the inhibition at 50 µM was found to be 50.5%.

The values are drawn from ChEMBL document CHEMBL3102850, “Microwave assisted synthesis of naphthopyrans catalysed by silica supported fluoroboric acid as a new class of non purine xanthine oxidase inhibitors” (Bioorg Med Chem Lett, 2014).
